Assay results taken from ChEMBL document CHEMBL1154798, “Aminocaprophenone- and pyrrolidine-type alkaloids from the leaves of Ficus septica” (J Nat Prod, 2009).
pIC50: −log10 of the molar value.

How the values were obtained:
HeLa = assay: Cytotoxicity against human HeLa cells after 48 hrs by WST8 colorimetric assay; type: functional, cell-based
[1] = Cytotoxicity against human ACC-MESO1 cells after 48 hrs by WST8 colorimetric assay; type: functional, cell-based; details: ACC-MESO-1, 48 h

| SMILES | pIC50 (HeLa) | pIC50 [1] |
| --- | --- | --- |
| COc1cc(C(=O)CC2CCC[N+]2(C)C)ccc1O (stereo unspecified) [FICUSEPTAMINE C] | < 3.80 | < 3.80 |
| COc1cc2c3c(c4cc(OC)c(OC)cc4c2cc1OC)CN1CCC[C@@H]1C3 [TYLOPHORINE] | 5.51 | 4.92 |
| CC(=O)c1ccc(O)c(O[C@@H]2O[C@H](CO)[C@@H](O)[C@H](O)[C@H]2O)c1 [PUNGENIN] | < 3.80 | < 3.80 |
| COc1ccc(C2=C(c3ccc(OC)c(OC)c3)CN3CCC[C@@H]3C2)cc1OC [SEPTICINE] | 4.42 | 4.20 |
| COc1cc(C(=O)CC2CCCN2C)ccc1O (stereo unspecified) [PHYLLOSTERONE] | < 3.80 | < 3.80 |
| COc1ccc(C(=O)CCCCCN(C)C)cc1O [FICUSEPTAMINE B] | 4.64 | 4.14 |
| COc1cc(C(=O)CCCCCN(C)C)ccc1O [FICUSEPTAMINE A] | 4.24 | 3.80 |
| COc1cc2c3c(c4ccc(OC)c(OC)c4c2cc1OC)[C@H](O)[C@@H]1CCC[N+]1([O-])C3 (stereo partly specified) | 5.15 | 4.55 |
